From publication PMC8346002 (International Journal of Molecular Sciences, 2021)
Entries after “also recorded” stand apart in the source; their conditions may differ. Like-named read-outs stand apart in the source and are kept apart here.

Key:
[1] = molecular target: T1, histone-like nucleoid structuring protein (H-NS) (Escherichia coli, UniProt P0ACF8); experiment: biochemical; format: binding
T1 construct: inferred from Ni-NTA/imidazole purification; made in house; host or cells: E. coli BL21 (DE3); over-expressing strain obtained from Dr. Hyon E. Choy, originally from Dr. Bremer's laboratory
T1 sequence (P0ACF8 whole entry): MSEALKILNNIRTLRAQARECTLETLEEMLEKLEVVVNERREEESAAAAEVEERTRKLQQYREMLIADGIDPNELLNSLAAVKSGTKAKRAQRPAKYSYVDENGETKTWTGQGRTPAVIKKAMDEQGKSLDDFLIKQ
Protocol: Figure 3 Determination of the dissociation constant KD for ppGpp on H-NS by fluorescence spectrometry. (a) The emission spectra of H-NS in the presence of ppGpp. While H-NS (10µM) was excited at 280 nm, the emission spectra in the presence of various concentrations of ppGpp were recorded at 25 °C. (b) The difference in fluorescence (ΔF(area)) between 322 and 336 nm against ppGpp concentrations.
(§1) Fluorescence intensities were measured at 25 °C using a F-4500 Fluorescence Spectrophotometer (Hitachi corporation). H-NS and CRP in 50 mM MOPS buffer, pH 7.5 were excited at 280 nm and the emission spectra were recorded from 290 to 400 nm under various ligand concentrations. The dissociation constant, KD, was calculated using the equation, ΔF/ΔFM = (([L] + [P] + KD) − (([L] + [P] + KD)^2 − 4·[L]·[P])^0.5)/2·[P], where ΔF, ΔFM, [P], and [L] represent fluorescence change, the maximal fluorescence change, total protein concentration, and total ligand concentration, respectively. The area below the spectra in the 15 nm ranges was used to calculate ΔF in this study. The corrections for the inner filter effect, introduced by the ligands, was performed using the formula, Fcor = F × 10^(P + ΔA)/2, where F and Fcor denote fluorescence intensity before and after the correction, whereas P and ΔA indicate the initial sample absorption at the excitation wavelength and the change in absorption introduced by ligands, respectively.

[2] = molecular target: T2, cAMP receptor protein (CRP) (Escherichia coli, UniProt P0ACJ8); format: binding; details: CRP 2 µM, 25 °C, 50 mM MOPS pH 7.5, excitation 280 nm, ΔF(area) 334-348 nm; read-out: KD for nucleotide ligands on CRP
T2 construct: inferred from pET21a(+) and Ni-NTA/imidazole purification); made in house; host or cells: E. coli BL21 (DE3), pET21a(+)
Protocol: Figure 1 Binding of ppGpp to CRP determined by fluorescence spectroscopy. (a) The fluorescence Spectra of CRP in the presence of ppGpp. Following excitation at 280 nm, the emission spectra of CRP (2 µM) were recorded at 25 °C. (b) The fluorescence change (ΔF(area)) against ppGpp concentrations. Instead of using the fluorescence change at a fixed wavelength, the area below the spectra between 334 and 348 nm was used, and the area decrease (ΔF(area)) upon addition of ppGpp was utilized to calculate the extent of fluorescence quenching.
as §1

[3] = molecular target: the molecule itself; experiment: SEC; size exclusion chromatography of isolated CRP, single peak; data not shown
[4] = H-NS 10 µM, 25 °C, 50 mM MOPS pH 7.5, excitation 280 nm, ΔF(area) 322-336 nm, read-out: KD for nucleotide ligands on H-NS

Molecule	Kd [2] [µM]	Kd [1, 4] [µM]	also measured
Nc1ncnc2c1ncn2[C@@H]1O[C@@H]2COP(=O)(O)O[C@H]2[C@H]1O [cAMP]			Kd [1]: 270 ± 40 µM
Nc1nc2c(ncn2[C@@H]2O[C@H](COP(=O)(O)OP(=O)(O)O)[C@@H](O)[C@H]2O)c(=O)[nH]1 [GDP]	62 ± 4	72 ± 6	
Nc1ncnc2c1ncn2[C@@H]1O[C@H](COP(=O)(O)OP(=O)(O)OP(=O)(O)O)[C@@H](O)[C@H]1O [ATP]	33 ± 4		KD for nucleotide ligands on H-NS ([1]; H-NS 10 µM, 25 °C, 50 mM MOPS pH 7.5, excitation 280 nm, ΔF(area) 322-336 nm): does not show a saturation curve; also recorded: did not show a saturation curve
Nc1nc2c(ncn2[C@@H]2O[C@@H]3COP(=O)(O)O[C@H]3[C@H]2O)c(=O)[nH]1 [cGMP]	17 ± 1		
Nc1nc2c(ncn2[C@@H]2O[C@H](COP(=O)(O)OP(=O)(O)OP(=O)(O)O)[C@@H](O)[C@H]2O)c(=O)[nH]1 [GTP]	35 ± 3	120 ± 25	
cyclic AMP receptor protein (CRP) from Escherichia coli (natural protein, E. coli K12 MG1655, cAMP receptor protein (CRP) of E. coli K12 MG1655; the gene was amplified by PCR from genomic DNA and cloned into pET21a(+) with NdeI and XhoI; About 24 kDa on SDS-PAGE; it is inferred from the vector and the Ni-NTA column; also called CAP; source: E. coli BL21 (DE3), pET21a(+), purified (Ni-NTA, desalting column)) MVLGKPQTDPTLEWFLSHCHIHKYPSKSTLIHQGEKAETLYYIVKGSVAVLIKDEEGKEMILSYLNQGDFIGELGLFEEGQERSAWVRAKTACEVAEISYKKFRQLIQVNPDILMRLSAQMARRLQVTSEKVGNLAFLDVTGRIAQTLLNLAKQPDAMTHPDGMQIKITRQEIGQIVGCSRETVGRILKMLEDQNLISAHGKTIVVYGTR			stoichiometry N [3]: 2
